According to patent publication US11179306B2, “Use of salicylic acid derivatives as prodesquamating active agent” (L'OREAL, priority 2013, dated 2021):

Experiments:
[1] = tested on: stratum corneum of viable human skin; experiment: Desquamating activity: cohesion of the stratum corneum on excised human skin maintained under survival conditions; type: cell-based; conditions: for Score (mean ± sd, n = 6), decrease in the cohesion of the stratum corneum / Appearance of the stratum corneum compared with control skin: 5% by weight in ethanol; for Score (mean ± sd, n = 6), decrease in the cohesion of the stratum corneum: 15 μl per 1 cm^2, applied at D0 and D1, histology at D2, score 0 (absence of modification) to 4 (very large decrease with exfoliation), 6 donors; for Appearance of the stratum corneum compared with control skin: morphology comparison; for Decrease in the cohesion of the stratum corneum with respect to the control skin (desquamating effect): at 5%, paired Student test, p<0.05
Description: The study is targeted at detecting the desquamating potential of the active agents in simplex solution by observation of the cohesion of the stratum corneum.
The keratolytic effect on excised skin maintained under survival conditions at 5% by weight in ethanol was evaluated. The study was carried out on viable human skin resulting from abdominal or breast reduction plastic surgery (6 donors).
(§1) The protocol consists in applying the test solutions to skin samples maintained under survival conditions. The products tested are applied in a proportion of 15 μl per 1 cm^2 sample and are not rinsed off. Application is carried out twice, at D0 and then, 24 hours later, at D1. The morphology of the stratum corneum is analysed 48 hours after the first application, at D2, on a biopsy.
The solutions applied are the following: • compound A of Example 1, at 5% by weight in ethanol, and • compound B of Example 2, at 5% by weight in ethanol.
By way of comparison, no solution is applied to some samples, referred to as controls.
The histological analysis of the horny layer is carried out on a skin section after staining with hemalaun-eosin (magnification 400).
6 samples were used for each of the tests (control, compound A and compound B). A paired Student test (p<0.05) was carried out in order to evaluate the significance of the difference with respect to the control.

[2] = tested on: epidermis of viable human skin; experiment: Tolerance of the skin: morphology of the epidermis of treated excised human skin; type: cell-based; conditions: 5% by weight in ethanol, compared with control skin
Description: as §1
In order to validate the desquamating properties of the compounds A and B and to evaluate the tolerance of the skin to these treatments, the morphology of a control skin was in addition compared with the morphology of the skin samples treated with A and with B present in a content of 5% by weight in ethanol, according to the protocol described above.

| Compound | Score (mean ± sd, n = 6), decrease in the cohesion of the stratum corneum [1] | Appearance of the stratum corneum compared with control skin [1] | Decrease in the cohesion of the stratum corneum with respect to the control skin (desquamating effect) [1] | Morphology of the epidermis (tolerance of the skin) [2] |
| --- | --- | --- | --- | --- |
| O=C(O)c1c(O)cccc1CCCCCCCCO [Compound A] | 1.85 ± 0.4 | decrease in the cohesion of the stratum corneum | statistically significant | preservation of the morphology of the epidermis |
| O=C(O)CCCCCCCc1cccc(O)c1C(=O)O [Compound B] | 1.75 ± 0.2 | decrease in the cohesion of the stratum corneum | statistically significant | preservation of the morphology of the epidermis |
